Results from patent US10231986B2, “Amino acid phosphoramidate pronucleotides of 2′-cyano, azido and amino nucleosides for the treatment of HCV” (Centre National De La Recherche Scientifique, priority 2013, dated 2019).
Read-outs that look alike come from different tables or passages of the source.

What was measured:
[1] = system: HCV genotype 1b replicon in Huh-7-derived cell line (Zluc); test: HCV replicon assay (luciferase reporter); format: cell-based
Experimental: Huh-7-derived cell line (Zluc) that harbors an HCV genotype 1b replicon and a luciferase reporter gene was grown in Dulbecco's Modified Eagle Medium (DMEM) supplemented with 10% fetal bovine serum, 2 mM GlutaMAX, 1% MEM nonessential amino acids, 100 IU/mL penicillin, 100 μg/mL streptomycin, and 0.5 mg/mL Geneticin® (G418). For dose response testing the cells were seeded in 96-well plates at 7.5×10^3 cells per well in a volume of 50 μL, and incubated at 37° C./5% CO2. Drug solutions were made up freshly in Huh-7 media as 2× stocks. Ten additional 5-fold dilutions were prepared from these stocks in DMEM without G418. At least three hours after Zluc cells were seeded, drug treatment was initiated by adding 50 μL of drug dilutions to the plates in duplicate. Final concentrations of drug ranged from 100 μM to […]. Cells were then incubated at 37° C./5% CO2. Alternatively, compounds were tested at two concentrations (1 μM and 10 μM). […] For this, media was removed from the plates via gentle tapping. Fifty microliters of ONE-glo luciferase assay reagent was added to each well. The plates were shaken gently for 3 min at room temperature and luminescence was measured on a Victor^3 V 1420 multilabel counter (Perkin Elmer) with a 1 second read time using a 700 nm cut-off filter. The EC50 values were calculated from dose response curves from the resulting best-fit equations determined by Microsoft Excel and XLfit 4.1 software. When screening at two fixed concentrations, the results were expressed as % inhibition at 1 μM and 10 μM.

Zluc cells = test: Cytotoxicity evaluation, CellTiter-Blue Cell Viability Assay; settings: read-out: HCV Replicon CC50; Zluc cells, CellTiter-Blue
[2] = as above; settings: human
[3] = molecular target: T1, wild-type HCV genotype 1b NS5B protein (recombinant HCV polymerase) (Hepatitis C virus genotype 1b, UniProt Q9WMX2); test: HCV polymerase enzyme assay, wild-type; format: biochemical
T1 construct: approximately 65 kDa HCV genotype 1b NS5B protein were used to generate recombinant HCV polymerases; made in house
From the text: (§1) Test compounds in the form of nucleoside triphosphates were examined for inhibitory activity against purified HCV polymerase in a standard assay. Bacterial expression constructs encoding the approximately 65 kDa HCV genotype 1b NS5B protein were used to generate recombinant HCV polymerases (with a deletion of the 21 carboxy terminal amino acids). Both the wild-type genotype 1b protein and protein containing the S282T mutation were expressed and purified for use in the enzymatic activity assay.
(§2) The enzymatic activity assay measured the inhibitory effect of increasing concentrations of test compound on the incorporation of α-[^33P]-labeled nucleotide into trichloroacetic acid-precipitable material. Recombinant polymerase and synthetic RNA template were combined in reaction buffer containing ribonucleoside triphosphates, α-[^33P]-labeled nucleotide and eight concentrations of test compound in three-fold dilutions. Reactions were incubated for two hours at 30° C.
(§3) Reactions were terminated by the addition of ice-cold trichloroacetic acid and sodium pyrophosphate to promote precipitation of newly-synthesized ribonucleic acid. Precipitable material from the reactions was collected by filtration onto 96-well filter plates, washed extensively with water, and quantified by liquid scintillation.
(§4) The inhibitory activity of test compounds was determined by fitting results to dose-response curves using XLfit software.

[4] = molecular target: T2, HCV genotype 1b NS5B protein containing the S282T mutation (Hepatitis C virus genotype 1b, UniProt Q9WMX2, S2701T); test: HCV polymerase enzyme assay, S282T mutant; format: biochemical
T2 construct: approximately 65 kDa HCV genotype 1b NS5B protein were used to generate recombinant HCV polymerases; made in house
From the text: as §1, §2, §3, §4

[5] = Zluc cells, genotype 1b replicon, 72 hours of incubation, read-out: HCV Replicon EC50
[6] = Hepatitis C virus, 72 h, Zluc cells, genotype 1b replicon, 72 hours of incubation, read-out: HCV Replicon EC50
[7] = Zluc cells (HCV replicon cells)
[8] = Hepatitis C virus, 72 h, read-out: HCV Replicon EC50, Zluc cells, genotype 1b replicon, 72 hours of incubation

Compound	CC50 at 72 h [2] [µM]	IC50 [3] [µM]	EC50 [1, 6] [µM]	also measured
CC(C)OC(=O)[C@H](C)NP(=O)(OC[C@H]1O[C@@H](n2ccc(=O)[nH]c2=O)[C@H](N=[N+]=[N-])[C@@H]1O)Oc1ccccc1 (single isomer, unassigned) [Compound 528 Diastereomer 2]	–	–	–	EC50 [1, 5]: > 10 µM; CC50 (Zluc cells): > 50 µM
CC(C)OC(=O)[C@H](C)NP(=O)(OC[C@H]1O[C@@H](n2ccc(=O)[nH]c2=O)[C@](C)(N)[C@@H]1O)Oc1ccccc1 (single isomer, unassigned) [Reference Compound A19 Diastereomer 1, reference compound]	> 50	–	–	EC50 [1, 5]: > 10 µM
C[C@@]1(C#N)[C@H](O)[C@@H](COP(=O)(O)OP(=O)(O)OP(=O)(O)O)O[C@H]1n1ccc(=O)[nH]c1=O [Compound 204]	–	< 0.25	–	IC50 [4]: 1 to 10 µM
C[C@@]1(N=[N+]=[N-])[C@H](O)[C@@H](CO)O[C@H]1n1ccc(=O)[nH]c1=O [Reference Compound 102, reference compound]	–	–	> 10	CC50 at 72 h [2, 7]: > 50 µM
CC(C)OC(=O)[C@H](C)NP(=O)(OC[C@H]1O[C@@H](n2ccc(=O)[nH]c2=O)[C@H](N)[C@@H]1O)Oc1ccccc1 (single isomer, unassigned) [Compound 526 Diastereomer 2]	–	–	–	EC50 [1, 5]: > 10 µM; CC50 (Zluc cells): > 50 µM
CC(C)OC(=O)[C@H](C)NP(=O)(OC[C@H]1O[C@@H](n2ccc(=O)[nH]c2=O)[C@H](N)[C@@H]1O)Oc1ccccc1 (single isomer, unassigned) [Compound 526 Diastereomer 1]	> 50	–	> 10	–
CC(C)OC(=O)[C@H](C)NP(=O)(OC[C@H]1O[C@@H](n2ccc(=O)[nH]c2=O)[C@H](N=[N+]=[N-])[C@@H]1O)Oc1ccccc1 (single isomer, unassigned) [Compound 528 Diastereomer 1]	> 50	–	> 10	–
CC(C)OC(=O)[C@H](C)NP(=O)(OC[C@H]1O[C@@H](n2ccc(N)nc2=O)[C@H](N=[N+]=[N-])[C@@H]1O)Oc1ccccc1 (mixture of isomers) [Compound 530 Diastereomer Mix]	> 50	–	–	EC50 [1, 8]: > 10 µM
CC1(C#N)C(O)C(CO)OC1n1ccc(N)nc1=O (stereo not shown) [Reference Compound A9b, reference compound]	–	–	–	EC50 [1, 5]: 1 to 10 µM; CC50 (Zluc cells): > 50 µM
CC(C)OC(=O)[C@@H](C)N[P@@](=O)(OC[C@H]1O[C@@H](n2ccc(N)nc2=O)[C@](C)(C#N)[C@@H]1O)Oc1ccccc1 [Compound 1a]	> 50	–	> 10	–
CC(C)OC(=O)[C@H](C)NP(=O)(OC[C@H]1O[C@@H](n2ccc(N)nc2=O)[C@H](N=[N+]=[N-])[C@@H]1O)Oc1ccccc1 (single isomer, unassigned) [Compound 530 Diastereomer 1]	> 50	–	–	EC50 [1, 8]: > 10 µM
Nc1ccn([C@@H]2O[C@H](COP(=O)(O)OP(=O)(O)OP(=O)(O)O)[C@@H](O)[C@H]2N)c(=O)n1 [Compound 207]	–	0.25 to 1	–	–
CC(C)OC(=O)[C@H](C)NP(=O)(OC[C@H]1O[C@@H](n2ccc(N)nc2=O)[C@H](N)[C@@H]1O)Oc1ccccc1 (single isomer, unassigned) [Compound 531 Diastereomer 1]	> 50	–	–	EC50 [1, 8]: > 10 µM
C[C@@]1(C#N)[C@H](O)[C@@H](COP(=O)(O)OP(=O)(O)OP(=O)(O)O)O[C@H]1n1ccc(N)nc1=O [Compound 205]	–	0.25 to 1	–	–
CC(C)OC(=O)[C@H](C)NP(=O)(OC[C@H]1O[C@@H](n2ccc(=O)[nH]c2=O)[C@](C)(N)[C@@H]1O)Oc1ccccc1 (single isomer, unassigned) [Reference Compound A19 Diastereomer 2, reference compound]	–	–	–	EC50 [1, 5]: 1 to 10 µM; CC50 (Zluc cells): > 50 µM
C[C@@]1(N)[C@H](O)[C@@H](COP(=O)(O)OP(=O)(O)OP(=O)(O)O)O[C@H]1n1ccc(=O)[nH]c1=O [Compound 203]	–	1 to 10	–	IC50 [4]: > 10 µM
CC(C)OC(=O)[C@H](C)NP(=O)(OC[C@H]1O[C@@H](n2ccc(=O)[nH]c2=O)[C@](C)(N=[N+]=[N-])[C@@H]1O)Oc1ccccc1 (single isomer, unassigned) [Reference Compound A18 Diastereomer 1, reference compound]	> 50	–	> 10	–
C[C@]1(N=[N+]=[N-])C(n2cnc3c(N)ncnc32)O[C@H](CO)[C@H]1O (stereo partly shown) [Reference Compound 101, reference compound]	–	–	> 10	CC50 at 72 h [2, 7]: > 50 µM
C[C@@]1(N)[C@H](O)[C@@H](CO)O[C@H]1n1ccc(=O)[nH]c1=O [Reference Compound 103, reference compound]	–	–	> 10	CC50 at 72 h [2, 7]: > 50 µM
C[C@@]1(N)[C@H](O)[C@@H](COP(=O)(O)OP(=O)(O)OP(=O)(O)O)O[C@H]1n1ccc(N)nc1=O [Compound 206]	–	1 to 10	–	–
C[C@@]1(N=[N+]=[N-])[C@H](O)[C@@H](COP(=O)(O)OP(=O)(O)OP(=O)(O)O)O[C@H]1n1cnc2c(N)ncnc21 [Compound 201]	–	0.25 to 1	–	IC50 [4]: > 10 µM
C[C@@]1(N)[C@H](O)[C@@H](COP(=O)(O)OP(=O)(O)OP(=O)(O)O)O[C@H]1n1cnc2c(N)ncnc21 [Compound 208]	–	1 to 10	–	IC50 [4]: > 10 µM
C[C@@]1(N=[N+]=[N-])[C@H](O)[C@@H](COP(=O)(O)OP(=O)(O)OP(=O)(O)O)O[C@H]1n1ccc(=O)[nH]c1=O [Compound 202]	–	0.25 to 1	–	IC50 [4]: > 10 µM
